Read-outs that look alike come from different tables or passages of the source.
Tests used:
HIV-1 IN = target: T1, HIV-1 IN (Human immunodeficiency virus type 1 group M subtype B, UniProt P12497); assay: Gel-based IN 3'-processing assay; type: biochemical; conditions: at least three independent experiments, read-out: In Vitro IC50 +/−SD, 3'-P
T1 construct: 250 nM of recombinant HIV-1 integrase; made in house; host or cells: E. coli RosettaII
Experimental: (§1) IN reactions were carried out by adding drugs or an equivalent volume of 100% DMSO (dimethyl sulfoxide, used as the drug solvent) to a mixture of 20 nM duplex DNA (21T/21B) and 400 nM IN in 50 mM MOPS pH 7.2, 7.5 mM MgCl2, and 14 mM 2-mercaptoethanol. Reactions were performed at 37 °C for 2 h and quenched by addition of an equal volume of loading buffer [formamide containing 1% SDS (sodium dodecyl sulfate), 0.25% bromophenol blue, and xylene cyanol]. Reaction products were separated in 16% polyacrylamide denaturing sequencing gels. Dried gels were visualized using a Typhoon 8600 (GE Healthcare, Piscataway, NJ, USA). Densitometric analyses were performed using the ImageQuant 5.1 software from GE Healthcare. Data analyses (linear regression, IC50 determination, and standard deviation) were performed using Prism 6.05 software from GraphPad.

HIV-1 integrase = target: T2, HIV-1 integrase (Human immunodeficiency virus type 1 group M subtype B, UniProt P12497); assay: Electrochemiluminescent integrase strand transfer assay (BioVeris), high-throughput screen; type: biochemical; conditions: single dose 10 µM; read-out: inhibition of IN ST activity
T2 construct: 250 nM of recombinant HIV-1 integrase; made in house; host or cells: E. coli RosettaII
Experimental: To enable a high-throughput screening, we used the ST assay developed by BioVeris. This proprietary plate-based assay measured stand transfer using electrochemiluminescent technology. First, we validated the assay using HIV-1 IN in the presence of DMSO, or increasing concentrations of a known inhibitor, MA-DKA (also known as 118-D-24, Figure 1A). […] Next, we used MA-DKA as a control in every test plate and screened a large library of molecules. Overall, 3095 compounds were tested as part of the NCI Developmental Therapeutics Program’s small molecule plated sets from the Open Chemical Repository Collection. […] A single dose testing (10 µM) enabled the identification of 130 molecules that inhibited ST by over 50% (light dashed line, Figure 1A). […] NSC153308 is a 2-phenacylsulfanylacetic acid that resembles the diketo acid chemotype. On the other side, NSC119889 is a xanthene derivative similar to V-165 [6]. […] However, the purpose of this study was to identify a new chemotype that might act on IN via a novel mechanism, distinct from known active site inhibitors. Accordingly, we retrieved the chemical structure of the 130 hits and looked for a chemical pattern different from that of conventional strand transfer inhibitors.
This electrochemiluminescent plate-based assay was performed using a BioVeris M-SERIES Analyzer (Gaithersburg, MD, USA). DNA substrates were obtained from BioVeris and used according to the manufacturer’s recommendations. Briefly, a biotinylated donor DNA was incubated for 30 min at 37 °C in the presence of 250 nM of recombinant HIV-1 integrase. Complexes were bound to paramagnetic streptavidin-coated beads (M-280 Dynabeads). After addition of the drug, the integration reaction was initiated by addition of a ruthenium-labeled target DNA. The reaction was carried out for 60 min at 37 °C, before reading on the BioVeris M-SERIES Analyzer.

HIV-1 = tested on: HIV-1; parameters: method as in http://dtp.nci.nih.gov, [7]; conditions: ref http://dtp.nci.nih.gov, [7]; cited from earlier work
[1] = target: T3, isolated catalytic core domain (CCD) (51–212) (Human immunodeficiency virus type 1 group M subtype B, UniProt P12497); assay: Schiff base IN-DNA crosslinking assay, isolated CCD; type: binding, HIV-1
T3 construct: the isolated catalytic core domain (CCD) (51–212); made in house; host or cells: E. coli RosettaII
Source text: (§2) To gain further evidence that NSC34931 interferes with DNA binding, and to determine the role of outer domains in this inhibition, we evaluated the ability of NSC34931 to inhibit the formation of IN-DNA crosslinks using our previously described Schiff base assay. Briefly, a deoxyuracyl nucleotide is incorporated in the DNA substrate to generate an abasic site via uracyl DNA glycosylase. IN forms a covalent complex (Schiff base), which can be stabilized by reduction with sodium borohydride (Figure 5A). Full-length IN, but also the isolated CCD or CTD domains, can crosslink DNA ([…]). Consistent with anisotropy data, NSC34931 suppresses the formation of IN-DNA crosslinks in the context of the full-length IN (Figure 5B, upper gel). Of note, the effective dose to inhibit this reaction is similar to that needed to inhibit 3′-P or ST (about 0.45 µM). In contrast, the IN CCD requires a 10 times higher concentration of compound to prevent DNA crosslinking, confirming that the NTD or the CTD are important for NSC34931 inhibition. Lastly, the same experiment was conducted with the isolated CTD (Figure 5B, lower gel).
(§3) Figure 5 Inhibition of IN-DNA binding by NSC34931. (A) Principle of the Schiff base crosslinking assay. An abasic site was introduced by uracil DNA glycosylase in the DNA substrate at the -12 position. […]

HIV-1 IN (WT) = target: T4, HIV-1 IN (WT) (Human immunodeficiency virus type 1 group M subtype B, UniProt P12497); assay: Gel-based IN strand transfer assay, WT enzyme; type: biochemical
T4 construct: 250 nM of recombinant HIV-1 integrase; made in house; host or cells: E. coli RosettaII
Experimental: as §1

full-length IN (1–288) = target: T5, full-length IN (1–288) (Human immunodeficiency virus type 1 group M subtype B, UniProt P12497); assay: Schiff base IN-DNA crosslinking assay, full-length IN; type: binding, HIV-1
T5 construct: using full-length IN (1–288), the isolated catalytic core domain (CCD) (51–212); made in house; host or cells: E. coli RosettaII
Source text: as §2, §3

O=S(=O)(O)c1cc(/N=N/c2cc(S(=O)(=O)O)c3ccccc3c2O)ccc1/C=C/c1ccc(/N=N/c2cc(S(=O)(=O)O)c3ccccc3c2O)cc1S(=O)(=O)O [NSC34931]
IC50 (HIV-1 IN): 320 ± 120 nM
inhibition at 10 µM (HIV-1 integrase): 77.8%
antiviral activity in HIV-1 cytopathic assay (HIV-1): antiviral
fold higher concentration required to prevent DNA crosslinking vs full-length IN [1]: 10
activity with Mg2+ or Mn2+ as metal cofactor (HIV-1 IN (WT); data not shown): equally active
IC50 (HIV-1 IN (WT); gel-based assay, coupled ST, at least three independent experiments, read-out: In Vitro IC50 +/−SD, ST): 180 ± 70 nM
IC50 (HIV-1 IN (WT); precleaved substrate (bypassing the 3'-P step), data not shown, read-out: IC50, ST inhibition with precleaved substrate): 230 nM
effective dose to inhibit IN-DNA crosslink formation (full-length IN (1–288)): about 0.45 µM
